For 24 molecules, logD results are on record in the SangsterLogP compilation.

Structures are written as SMILES.

The data set can be described thus: method code SF-HPLC, from PMID: 2608704. Conditions: pH 1.0.
A word on the logD: it is lipophilicity at a set pH, counting ionised and neutral species. On to `O=C(O)CCCC1=NS(=O)(=O)c2cc(Cl)cc(Cl)c2N1`, for which the logD was found to be 1.22. In the case of `O=C(O)CCSC1=NS(=O)(=O)c2ccc(C(F)(F)F)cc2N1`, the logD amounted to 1.96. Regarding `O=C(O)CSC1=NS(=O)(=O)c2cc(Br)cc(Br)c2N1`, the logD was found to be 1.16. `O=C(O)CCSC1=NS(=O)(=O)c2ccccc2N1` came in with a logD of 0.66. With `COc1ccc2c(c1)NC(SCC(=O)O)=NS2(=O)=O`, the logD worked out at 0.37. Turning to `O=C(O)CCSC1=NS(=O)(=O)c2cc(Cl)ccc2N1`, the logD was found to be 1.43.

`O=C(O)CCCC1=NS(=O)(=O)c2cc(Br)cc(Br)c2N1` gave a logD of 1.51.

With `Cc1ccc2c(c1)NC(SCC(=O)O)=NS2(=O)=O`, the logD was 0.7. With `O=C(O)CCSC1=NS(=O)(=O)c2ccc(Cl)cc2N1`, the logD came out at 1.6. On to `O=C(O)CSC1=NS(=O)(=O)c2ccc(C(F)(F)F)cc2N1`, for which the logD turned out to be 1.62. Take `COc1ccc2c(c1)NC(SCCC(=O)O)=NS2(=O)=O`: the log distribution coefficient (logD) was determined as 0.96. In turn, `O=C(O)CSC1=NS(=O)(=O)c2cc(Cl)cc(Cl)c2N1` returned a logD of 1.09. `O=C(O)CCSC1=NS(=O)(=O)c2cc(Br)ccc2N1` had a logD of 1.77. Consider `O=C(O)CCSC1=NS(=O)(=O)c2cc(Cl)c(Cl)cc2N1`, for which the logD was 1.81. `O=C(O)CCC1=NS(=O)(=O)c2cc(Cl)cc(Cl)c2N1` came in with a logD of 1.04. For `O=C(O)CSC1=NS(=O)(=O)c2ccccc2N1`, the logD was determined as 0.18. `O=C(O)CSC1=NS(=O)(=O)c2cc(Cl)c(Cl)cc2N1` returned a logD of 1.1. In turn, `O=C(O)CCC1=NS(=O)(=O)c2cc(Cl)c(Cl)cc2N1` displayed a pH-dependent lipophilicity (logD) of 1.5. In turn, `O=C(O)CSC1=NS(=O)(=O)c2cc(Br)ccc2N1` showed a logD of 0.92. `Cc1ccc2c(c1)NC(SCCC(=O)O)=NS2(=O)=O` yielded a logD of 1.16. The same measure for `O=C(O)CCSC1=NS(=O)(=O)c2cc(Br)cc(Br)c2N1`: 2.04; for `O=C(O)CSC1=NS(=O)(=O)c2ccc(Cl)cc2N1`: 0.82; for `O=C(O)CSC1=NS(=O)(=O)c2cc(Cl)ccc2N1`: 0.72.

For `O=C(O)CCC1=NS(=O)(=O)c2cc(Br)cc(Br)c2N1`, the logD worked out at 1.35.
